Laboratory results reported in patent publication US20170349540A1, “HISTONE DEACETYLASE INHIBITORS” (The General Hospital Corporation, priority 2014, published 2017).

What was measured:
[1] = tested on: rats; experiment: Open field activity test; format: in vivo, rat; conditions: 20-fold higher doses relative to the FST tests (0.5 and 2.0 mg/kg i.p.), relative to vehicle-treated controls
Method: Behavioral testing was applied to a cohort of 12 rats. Following 7 days of daily i.p. treatment with i) vehicle (10% DMSO, 10% Tween 80, 80% saline; 2 mL/kg); or solubilized ii) the compound of Example 2 (0.025 mg/kg) or iii) the compound of Example 2 (0.1 mg/kg), rats were exposed to the modified forced swim test (FST). Briefly, FST exposure (15 min exposure, 25° C. tap water, 30 cm water depth) was performed 18-24 h after the previous i.p. treatment, after which rats were returned to their home cages to dry for approximately 2-3 h, then given daily i.p. treatment as before. FST testing was performed one day later (5 min test, 25° C. tap water, 30 cm water depth) with behaviors digitally recorded for subsequent analysis of immobility by a trained reviewer, blinded to treatment groups. Rats were returned to home cages and monitored without treatment for 72 h. Rats were then treated for 7 additional days with i) vehicle, ii) the compound of Example 2 (0.5 mg/kg) or iii) the compound of Example 2 (2.0 mg/kg) via daily i.p. injection; treatment assignments for each rat remained the same with a 20× increase in dose of the compound of Example 2. Animals were then evaluated for locomotor activity in an open field (60 cm square) using automated tracking software (MedAssociates). […]

[2] = Intravenous pharmacokinetics and brain distribution assay; format: in vivo, male Sprague Dawley rats; conditions: single i.v. dose 1 mg/kg
Method: Healthy male Sprague Dawley rats (8-12 weeks old) weighing between 200 to 250 g were procured from In vivo Bioscience, Bengluru, India. Three rats were housed in each cage. Temperature and humidity were maintained at 22±3° C. and 40-70%, respectively and illumination was controlled to give a sequence of 12 h light and 12 h dark cycle. Temperature and humidity were recorded by auto-controlled data logger system. All the animals were provided laboratory rodent diet (Vetcare India Pvt. Ltd, Bengaluru) ad libitum. Reverse osmosis water treated with ultraviolet light was provided ad libitum.
Sprague Dawley rats were intravenously administered a solution formulation of the compound of Example 2 prepared in 10% DMSO, 10% Tween 80, 80% normal saline. The blood samples were collected from a set of three rats at each time point in labeled micro centrifuge tube containing K2EDTA solution as anticoagulant. Plasma samples were separated by centrifugation of whole blood and stored at below −70° C. until bioanalysis. After collection of blood samples at each time point animals were humanely euthanized by CO2 and the brain was collected. Brain samples were homogenized using ice-cold phosphate buffer saline (pH=7.4) and homogenates were stored at below −70° C. until analysis. Total homogenate volume was three times the brain weight. All samples were processed for analysis by protein precipitation using acetonitrile and analyzed with fit-for-purpose LC-MS/MS method (LLOQ=1.01 ng/mL in plasma and brain). Pharmacokinetic parameters were calculated using the non-compartmental analysis tool of Phoenix WinNonlin® (Version 6.3).
The compound of Example 2 (5.89 mg) was added in a labeled bottle, followed by DMSO (2.945 mL), Tween 80 (2.945 mL), and normal saline (23.50 mL), and the resulting mixture was mixed by vortexing after each addition. The solution formulation was sonicated for 2 minutes to obtain a clear solution. After preparation of formulation, 200 μL samples were aliquoted for analysis. […] All formulations were freshly prepared prior to dosing. […]
Concentrations of the compound of Example 2 in rat plasma and brain samples were analyzed with fit-for-purpose by LC-MS/MS method. […] Following centrifugation, 100 µL of clear supernatant was transferred to a 96-well plate and analyzed using LC-MS/MS.
Non-Compartmental-Analysis module in Phoenix WinNonlin® (Version 6.3) was used to assess the pharmacokinetic parameters. […] The areas under the concentration time curve (AUClast and AUCinf) were calculated by linear trapezoidal rule. The terminal elimination rate constant, ke, was determined by regression analysis of the linear terminal portion of the log plasma concentration-time curve. […]

- Kp ([2]; male, Sprague Dawley, rat, brain/plasma, iv, read-out: brain-to-plasma exposure ratio): 8.35
- clearance ([2]; male, Sprague Dawley, rat, plasma, iv): 79 mL/min/kg
- half-life ([2]; male, Sprague Dawley, rat, plasma, iv, read-out: elimination half-life (converted)): 54.6 min
- Vss relative to the normal volume of total body water (0.7 L/kg) [2]: 6 fold
Structure (SMILES): CN(Cc1ccc(/C=C/C(=O)Nc2ccccc2N)cc1)CC12CC3CC(CC(C3)C1)C2 [Example 2, (E)-3-(4-((((3r,5r,7r)-adamantan-1-ylmethyl)(methyl)amino)methyl)phenyl)-N-(2-aminophenyl)acrylamide]
- effect in locomotor activity (open field) [1]: no confounding effect in locomotor activity
